Source: PMC7606800 (The Science of the total environment, 2020)

Target: NfnB (PpNfnB) (Pseudomonas putida, UniProt Q88K59)
Assay: nitroreduction, HPLC-ICP-MS
Assay type: biochemical
Conditions: 4 uM substrate, 1 uM enzyme, 0.2 mM NADPH, 25 uM FMN, pH 7.0, 37 °C

O=[N+]([O-])c1ccc([As](=O)(O)O)cc1 [Nit(V), 4-nitrophenylarsonic acid]
nitroreduction, HPLC-ICP-MS: NfnB also reduces Nit(V) to p-ASA(V)
